Experimental data published in the NIST ThermoML archive (doi:10.1016/j.jct.2005.09.004).

Assays:
[1] = xn = mol fraction of the nth substance listed; settings: for surface tension liquid-gas: Drop volume; for mass density: 101 kPa, Liquid
[2] = refractive index (Na D-line) (dimensionless); φn = volume fraction of the nth substance listed; settings: 101 kPa, Liquid, Standard Abbe refractometry

C1COCCO1 [1,4-dioxane] + C1CCCCC1
Settings	mass density [kg/m3]	refractive index	surface tension liquid-gas [mN/m]
[1], 283.15 K, x1 = 0.0502	796.53	–	–
[1], 283.15 K, x1 = 0.0684	–	–	26.1
[1], 283.15 K, x1 = 0.0999	805.45	–	–
[1], 283.15 K, x1 = 0.1484	–	–	25.94
[1], 283.15 K, x1 = 0.1953	823.9	–	–
[1], 283.15 K, x1 = 0.2267	–	–	25.85
[1], 283.15 K, x1 = 0.2899	843.69	–	–
[1], 283.15 K, x1 = 0.2974	–	–	25.97
[1], 283.15 K, x1 = 0.3996	868.5	–	–
[1], 283.15 K, x1 = 0.4402	–	–	26.2
[1], 283.15 K, x1 = 0.5017	893.36	–	–
[1], 283.15 K, x1 = 0.5509	–	–	26.51
[1], 283.15 K, x1 = 0.6007	919.28	–	–
[1], 283.15 K, x1 = 0.6578	–	–	27.08
[1], 283.15 K, x1 = 0.699	946.87	–	–
[1], 283.15 K, x1 = 0.7394	–	–	27.97
[1], 283.15 K, x1 = 0.7956	976.06	–	–
[1], 283.15 K, x1 = 0.8115	–	–	29.3
[1], 283.15 K, x1 = 0.8994	1009.7	–	–
[1], 283.15 K, x1 = 0.9186	–	–	32
[1], 283.15 K, x1 = 0.9446	1025.26	–	–
[1], 283.15 K, x1 = 0.9738	–	–	33.93
[1], 298.15 K, x1 = 0.0535	782.54	–	–
[1], 298.15 K, x1 = 0.0684	–	–	25.1
[1], 298.15 K, x1 = 0.1053	791.71	–	–
[1], 298.15 K, x1 = 0.1484	–	–	25.24
[1], 298.15 K, x1 = 0.1998	809.79	–	–
[1], 298.15 K, x1 = 0.2267	–	–	25.29
[1], 298.15 K, x1 = 0.2974	–	–	25.38
[1], 298.15 K, x1 = 0.3003	830.58	–	–
[1], 298.15 K, x1 = 0.4026	853.43	–	–
[1], 298.15 K, x1 = 0.4402	–	–	25.72
[1], 298.15 K, x1 = 0.5006	876.98	–	–
[1], 298.15 K, x1 = 0.5509	–	–	26.07
[1], 298.15 K, x1 = 0.5971	901.85	–	–
[1], 298.15 K, x1 = 0.6578	–	–	26.62
[1], 298.15 K, x1 = 0.7028	931.22	–	–
[1], 298.15 K, x1 = 0.7394	–	–	27.1
[1], 298.15 K, x1 = 0.8089	963.35	–	–
[1], 298.15 K, x1 = 0.8115	–	–	28
[1], 298.15 K, x1 = 0.9038	994.24	–	–
[1], 298.15 K, x1 = 0.9186	–	–	30.26
[1], 298.15 K, x1 = 0.9485	1009.6	–	–
[1], 298.15 K, x1 = 0.9738	–	–	31.99
[1], 313.15 K, x1 = 0.0497	767.71	–	–
[1], 313.15 K, x1 = 0.0684	–	–	23.8
[1], 313.15 K, x1 = 0.102	776.79	–	–
[1], 313.15 K, x1 = 0.1484	–	–	24.23
[1], 313.15 K, x1 = 0.1944	794	–	–
[1], 313.15 K, x1 = 0.2267	–	–	24.46
[1], 313.15 K, x1 = 0.2926	813.99	–	–
[1], 313.15 K, x1 = 0.2974	–	–	24.71
[1], 313.15 K, x1 = 0.3973	837	–	–
[1], 313.15 K, x1 = 0.4402	–	–	25.23
[1], 313.15 K, x1 = 0.4969	860.64	–	–
[1], 313.15 K, x1 = 0.5509	–	–	25.7
[1], 313.15 K, x1 = 0.5992	886.73	–	–
[1], 313.15 K, x1 = 0.6578	–	–	26.2
[1], 313.15 K, x1 = 0.6988	914.22	–	–
[1], 313.15 K, x1 = 0.7394	–	–	26.62
[1], 313.15 K, x1 = 0.7966	943.29	–	–
[1], 313.15 K, x1 = 0.8115	–	–	27.13
[1], 313.15 K, x1 = 0.8972	975.49	–	–
[1], 313.15 K, x1 = 0.9186	–	–	28.62
[1], 313.15 K, x1 = 0.9505	993.41	–	–
[1], 313.15 K, x1 = 0.9738	–	–	30.17
[2], 283.15 K, φ1 = 0.0478	–	1.4305	–
[2], 283.15 K, φ1 = 0.075	–	1.42987	–
[2], 283.15 K, φ1 = 0.1601	–	1.42827	–
[2], 283.15 K, φ1 = 0.251	–	1.4271	–
[2], 283.15 K, φ1 = 0.3438	–	1.42629	–
[2], 283.15 K, φ1 = 0.4452	–	1.42577	–
[2], 283.15 K, φ1 = 0.5448	–	1.42557	–
[2], 283.15 K, φ1 = 0.649	–	1.42556	–
[2], 283.15 K, φ1 = 0.756	–	1.42585	–
[2], 283.15 K, φ1 = 0.8802	–	1.42643	–
[2], 283.15 K, φ1 = 0.9414	–	1.4268	–
[2], 298.15 K, φ1 = 0.0319	–	1.4226	–
[2], 298.15 K, φ1 = 0.0849	–	1.42144	–
[2], 298.15 K, φ1 = 0.1562	–	1.42012	–
[2], 298.15 K, φ1 = 0.2528	–	1.41893	–
[2], 298.15 K, φ1 = 0.3465	–	1.41821	–
[2], 298.15 K, φ1 = 0.4415	–	1.4178	–
[2], 298.15 K, φ1 = 0.5389	–	1.4177	–
[2], 298.15 K, φ1 = 0.651	–	1.41786	–
[2], 298.15 K, φ1 = 0.7604	–	1.41827	–
[2], 298.15 K, φ1 = 0.8701	–	1.41893	–
[2], 298.15 K, φ1 = 0.9439	–	1.41949	–
[2], 313.15 K, φ1 = 0.0381	–	1.41404	–
[2], 313.15 K, φ1 = 0.0816	–	1.41308	–
[2], 313.15 K, φ1 = 0.1625	–	1.41168	–
[2], 313.15 K, φ1 = 0.268	–	1.41055	–
[2], 313.15 K, φ1 = 0.3476	–	1.41002	–
[2], 313.15 K, φ1 = 0.4399	–	1.40973	–
[2], 313.15 K, φ1 = 0.5368	–	1.40971	–
[2], 313.15 K, φ1 = 0.6463	–	1.41003	–
[2], 313.15 K, φ1 = 0.7626	–	1.41069	–
[2], 313.15 K, φ1 = 0.8682	–	1.41143	–
[2], 313.15 K, φ1 = 0.9462	–	1.4121	–
